# Measured values reported in patent US20030170656A1, “Method of screening for factors that modulate gene expression” (Chiron Corporation, priority 1995, published 2003).
# B1: 16.1: 61 amino acid polypeptide of SEQ ID NO. 2, deconvoluted from pool 16.1, capable of inducing c-fos transcription in NIH3T3 cells (protein)
# chain: MTLMVFKCSDNLLLIVVYAKVFPSTSCIHYQIYTCKFEVLLFSQHELKIFCNSARQGSSCL
# Legend:
# Assay type in all cases: cell-based
# c-fos mRNA in FTL cells = test: bDNA assay against c-fos mRNA in NIH3T3 derived FTL cells
# Description: To assay for a growth factor that stimulates the expression of the c-fos gene, NIH3T3 derived FTL cells were selected as the responsive cells. A library for screening is prepared from human tissue as described above for expression in Xenopus oocytes. Plasmid DNAs from small library pools of 100 to 500 independent colonies per pool were constructed and in vitro transcribed into cRNAs. Each pool of cRNAs were injected into Xenopus laevis oocytes and cultured at 18° C. overnight. The next day, each oocyte was then cocultured on a bed of NIH3T3 derived FTL cells in a microwell and incubated at 37° C. for three hours.
# The oocytes were removed and induction of c-fos messenger was measured by bDNA assay against c-fos mRNA. […] In the present experiment, a bDNA assay detected a lower concentration of library, with the ability to detect from 4000 FTL cells less than 0.01 nM of PDGFBB (PDGF β chain dimer). As previously described, administration of PDGFBB to cells, including FTL cells, induces the transcription of the c-fos gene.
# [1] = system: c-fos mRNA in NIH3T3 cells; test: c-fos induction by bDNA assay in NIH3T3 cells (small molecule pool screen with PDGFBB); conditions: bDNA against c-fos mRNA, read-out: concentration giving 50% of maximal c-fos induction
# Description: Small molecule library pools are prepared as described above, and 48 such pools were marked and divided for screening. An aliquot of each pool (2 μM final concentration) was placed in a micro-well on a bed of NIH3T3 cells in a microwell and incubated at 37° C. for 45 minutes with 1 ηM PDGFBB.
# Each well was assayed by induction of c-fos messenger by bDNA assay against c-fos mRNA. In a previous study (described in example 8), a bDNA assay detected induction of c-fos mRNA by less than 0.01 ηM of PDGFBB (PDGF β chain dimer). 1 ηM of PDGFBB gives 50% of maximal c-fos induction. As previously described, administration of PDGFBB to cells, including FTL cells, induces the transcription of the c-fos gene.
# In this study, induction or reduction of the c-fos gene was measured by bDNA. Where an agonist was present in the small molecule library pool, c-fos induction was expected to occur at about the same level or greater as induction by administration of PDGFBB. Where an antagonist was present in the small molecule library pool, c-fos transcription was expected to be reduced perhaps to non-detectable levels. […]
# [2] = system: serum responsive element (SRE)-luciferase construct in FTL cells; test: SRE-luciferase reporter assay (luciferase assay) in NIH3T3 derived FTL cells; conditions: 4000 cells
# Description: (§1) A construct comprising in operable linkage a luciferase reporter gene and the serum responsive element (SRE) was stably transfected into NIH3T3 derived FTL cells which were selected as the responsive cells. Plasmid DNAs from small library pools of 100 to 500 independent colonies per pool were constructed and in vitro transcribed into cRNAs. Each pool of cRNAs were injected into Xenopus laevis oocytes and cultured at 18° C. overnight. The next day, each oocyte was then cocultured with FTL cells transfected with the SRE-luciferase construct and incubated at 37° C. for three hours in a microwell. The oocytes were removed and induction of luciferase gene was assayed by luciferase assay, and also by bDNA assay against luciferase mRNA. The luciferase assay was sensitive to 4000 cells with a minimum concentration of 1 nM of PDGFBB (PDGF β chain dimer). The bDNA assay detected a lower concentration of library, with the ability to detect from 4000 cells less than 0.01 nM of PDGFBB.
# [3] = system: luciferase mRNA (SRE-luciferase construct) in FTL cells; test: bDNA assay against luciferase mRNA in SRE-luciferase FTL cells; conditions: 4000 cells
# Description: as §1
# [4] = system: c-fos transcription in NIH3T3 cells; test: Xenopus oocyte/NIH3T3 coculture, c-fos induction by bDNA assay; conditions: compared to non-stimulated NIH3T3 cells
# Description: Manual defolliculated Xenopus oocytes are excellent at expressing in vitro transcribed cRNA and its background c-fos induction activity is almost none. Taking advantage of the size of Xenopus oocytes, a coculture system using Xenopus oocytes and NIH3T3 cells was developed in microplates which allowed the detection of both diffusible and membrane-attached nondiffusible growth factors. However, it was shown that damaged oocytes produce significant c-fos induction in NIH3T3 cells. A repeatable condition was established, however, which was sensitive enough to detect PDGF c-sis activity secreted from an oocyte injected with 0.08 ng of PDGF c-sis cRNA. This sensitivity was shown allowing for detection of PDGF c-sis activity in a pool of 600 clones. Screening was then conducted of 350 pools of a mouse brain cDNA library with a diversity of an average of 150 clones per pool, and 100 pools of a Xenopus embryo library with a diversity of 80 clones per pool. Considering the biological variation between oocytes, each pool of cRNA was injected into three oocytes and subsequently yielded triplicate results.
# Among these 450 pools, 61 pools were initially found positive. After multiple repeated experiments, 14 remained moderately positive. […] The nucleotide and translated protein sequence for clone 16.1 was determined, and is represented in SEQ ID NO. […]
molecule,measurement,setting,value
PDGFBB: PDGF β chain dimer,concentration detectable by bDNA assay against c-fos mRNA,c-fos mRNA in FTL cells; 4000 FTL cells,less than 0.01 nM
same,concentration inducing c-fos mRNA detected by bDNA assay,c-fos mRNA in FTL cells; as restated in Example 9 from Example 8,less than 0.01 ηM
same,EC50,[1],1 nM
same,minimum concentration detected by luciferase assay,[2],1 nM
same,concentration detectable by bDNA assay against luciferase mRNA,[3],less than 0.01 nM
B1,induction of c-fos transcription,[4],5 fold
same,induction of c-fos transcription,[4]; listed as SEQ ID NO. 2,about 5 fold
